The results in this text go back to publication PMC5218480 (PLoS ONE, 2017).

For the experiment, the system named is MV-4-11 cells. The experiment is described as follows: Gene expression microarray analysis (Affymetrix PrimeView) and GSEA. The class given is cell-based, human. Details: RFU PODN (11730768_x_at) / Fold change /veh PODN (11730768_x_at) / RFU LINC00158 (11744669_a_at) / Fold change /veh LINC00158 (11744669_a_at) / RFU DUSP10 (11751237_a_at) / Fold change /veh DUSP10 (11751237_a_at) / RFU ID3 (11757404_x_at) / Fold change /veh ID3 (11757404_x_at) / RFU PLEKHG5 (11737974_s_at) / Fold change /veh PLEKHG5 (11737974_s_at) / RFU LRRC4B (11730491_at) / Fold change /veh LRRC4B (11730491_at) / RFU GIMAP4 (11747438_a_at) / Fold change /veh GIMAP4 (11747438_a_at) / RFU KRT8 (11758183_x_at) / Fold change /veh KRT8 (11758183_x_at) / RFU CNN1 (11734310_a_at) / Fold change /veh CNN1 (11734310_a_at) / RFU VPS37D (11726825_at) / Fold change /veh VPS37D (11726825_at) / RFU C10orf10 (11716522_x_at) / Fold change /veh C10orf10 (11716522_x_at) / RFU KIR2DL2 /// KIR2DL4 /// KIR2DL5A /// KIR2DL5B /// KIR2DS1 /// KIR2DS2 /// KIR2DS3 /// KIR2DS4 /// KIR3DL3 /// KIR3DL3 /// KIR3DS1 (11738374_at) / Fold change /veh KIR2DL2 /// KIR2DL4 /// KIR2DL5A /// KIR2DL5B /// KIR2DS1 /// KIR2DS2 /// KIR2DS3 /// KIR2DS4 /// KIR3DL3 /// KIR3DL3 /// KIR3DS1 (11738374_at) / RFU C1QL1 (11718748_at) / Fold change /veh C1QL1 (11718748_at) / RFU TMPRSS4 (11747572_a_at) / Fold change /veh TMPRSS4 (11747572_a_at) / RFU HAMP (11756126_x_at) / Fold change /veh HAMP (11756126_x_at) / RFU RNFT2 (11725882_a_at) / Fold change /veh RNFT2 (11725882_a_at) / RFU NR4A2 (11747474_a_at) / Fold change /veh NR4A2 (11747474_a_at) / RFU ABCC12 (11746883_a_at) / Fold change /veh ABCC12 (11746883_a_at) / RFU TMEM136 (11760407_x_at) / Fold change /veh TMEM136 (11760407_x_at) / RFU CLDN22 /// WWC2 (11732394_at) / Fold change /veh CLDN22 /// WWC2 (11732394_at) / RFU HLA-DPB1 (11760878_x_at) / Fold change /veh HLA-DPB1 (11760878_x_at) / RFU SPINT1 (11716480_a_at) / Fold change /veh SPINT1 (11716480_a_at) / RFU GAP43 (11754022_s_at) / Fold change /veh GAP43 (11754022_s_at) / RFU A4GNT (11735810_at) / Fold change /veh A4GNT (11735810_at) / RFU PRB3 (11715151_x_at) / Fold change /veh PRB3 (11715151_x_at) / RFU TUBB4B (11761932_at) / Fold change /veh TUBB4B (11761932_at) / RFU CAPN14 (11732068_a_at) / Fold change /veh CAPN14 (11732068_a_at) / RFU TMCC2 (11721928_a_at) / Fold change /veh TMCC2 (11721928_a_at) / RFU IRGQ (11745062_a_at) / Fold change /veh IRGQ (11745062_a_at) / RFU FAM174B (11720279_a_at) / Fold change /veh FAM174B (11720279_a_at) / RFU TMPRSS4 (11748680_a_at) / Fold change /veh TMPRSS4 (11748680_a_at) / RFU FAM212B (11763350_a_at) / Fold change /veh FAM212B (11763350_a_at) / RFU PLEKHG5 (11743358_a_at) / Fold change /veh PLEKHG5 (11743358_a_at) / RFU ZSCAN30 (11745921_a_at) / Fold change /veh ZSCAN30 (11745921_a_at) / RFU CMKLR1 (11741424_a_at) / Fold change /veh CMKLR1 (11741424_a_at) / RFU LOC101060620 /// MAPK8IP1 (11723275_at) / Fold change /veh LOC101060620 /// MAPK8IP1 (11723275_at) / RFU SPTSSB (11747773_x_at) / Fold change /veh SPTSSB (11747773_x_at) / RFU PRSS12 (11739890_at) / Fold change /veh PRSS12 (11739890_at) / RFU BIN1 (11741810_x_at) / Fold change /veh BIN1 (11741810_x_at) / RFU WNT11 (11732464_a_at) / Fold change /veh WNT11 (11732464_a_at) / RFU C10orf10 (11716521_a_at) / Fold change /veh C10orf10 (11716521_a_at) / RFU C5orf56 (11738089_at) / Fold change /veh C5orf56 (11738089_at) / RFU CYB561 (11721691_x_at) / Fold change /veh CYB561 (11721691_x_at) / RFU ANKRD19P (11752326_a_at) / Fold change /veh ANKRD19P (11752326_a_at) / RFU OR2T12 /// OR2T33 /// OR2T8 (11738714_s_at) / Fold change /veh OR2T12 /// OR2T33 /// OR2T8 (11738714_s_at) / RFU VCAN (11748164_a_at) / Fold change /veh VCAN (11748164_a_at) / RFU JSRP1 (11732532_at) / Fold change /veh JSRP1 (11732532_at) / RFU KRTAP10-11 (11738290_x_at) / Fold change /veh KRTAP10-11 (11738290_x_at) / RFU MYO3A (11730013_a_at) / Fold change /veh MYO3A (11730013_a_at) / RFU EBF3 (11725865_a_at) / Fold change /veh EBF3 (11725865_a_at) / RFU CAMK2N1 (11719241_x_at) / Fold change /veh CAMK2N1 (11719241_x_at) / RFU C5orf56 (11738088_a_at) / Fold change /veh C5orf56 (11738088_a_at) / RFU OLFML3 (11715873_a_at) / Fold change /veh OLFML3 (11715873_a_at) / RFU LOC100653217 /// NTM (11731650_a_at) / Fold change /veh LOC100653217 /// NTM (11731650_a_at) / RFU MAPK11 (11762145_a_at) / Fold change /veh MAPK11 (11762145_a_at) / RFU FIZ1 (11724087_x_at) / Fold change /veh FIZ1 (11724087_x_at) / RFU OASL (11726364_x_at) / Fold change /veh OASL (11726364_x_at) / RFU SOX15 (11748057_x_at) / Fold change /veh SOX15 (11748057_x_at) / RFU CD79A (11719716_a_at) / Fold change /veh CD79A (11719716_a_at) / RFU HIST1H1D (11736915_at) / Fold change /veh HIST1H1D (11736915_at) / RFU CASKIN2 (11723855_a_at) / Fold change /veh CASKIN2 (11723855_a_at) / RFU LOC730098 (11760151_x_at) / Fold change /veh LOC730098 (11760151_x_at) / RFU OR4N2 (11742367_at) / Fold change /veh OR4N2 (11742367_at) / RFU PRRT2 (11749266_a_at) / Fold change /veh PRRT2 (11749266_a_at) / RFU SNX32 (11753110_a_at) / Fold change /veh SNX32 (11753110_a_at) / RFU CDHR5 (11726645_a_at) / Fold change /veh CDHR5 (11726645_a_at) / RFU RCAN1 (11760418_a_at) / Fold change /veh RCAN1 (11760418_a_at) / RFU FAM167A (11723789_a_at) / Fold change /veh FAM167A (11723789_a_at) / RFU FAM26E (11764081_at) / Fold change /veh FAM26E (11764081_at) / RFU ISYNA1 (11749810_s_at) / Fold change /veh ISYNA1 (11749810_s_at) / RFU ACY1 (11761880_at) / Fold change /veh ACY1 (11761880_at) / RFU 11764098_at / Fold change /veh 11764098_at / RFU SAMD14 (11745864_x_at) / Fold change /veh SAMD14 (11745864_x_at) / RFU NPB (11741838_a_at) / Fold change /veh NPB (11741838_a_at) / RFU TMPRSS6 (11731388_a_at) / Fold change /veh TMPRSS6 (11731388_a_at) / RFU KRTAP10-2 (11738614_at) / Fold change /veh KRTAP10-2 (11738614_at) / RFU ARHGAP8 /// PRR5-ARHGAP8 (11727945_x_at) / Fold change /veh ARHGAP8 /// PRR5-ARHGAP8 (11727945_x_at) / RFU KRTAP5-7 /// NADSYN1 (11734609_at) / Fold change /veh KRTAP5-7 /// NADSYN1 (11734609_at) / RFU RASL12 (11751679_a_at) / Fold change /veh RASL12 (11751679_a_at) / RFU CDKN2B (11736163_a_at) / Fold change /veh CDKN2B (11736163_a_at) / RFU PRF1 (11729649_at) / Fold change /veh PRF1 (11729649_at) / RFU, ZNF638 /// ZNF638-IT1 / Fold change vs veh, ZNF638 /// ZNF638-IT1 / RFU, PANK3 / Fold change vs veh, PANK3 / RFU, SH3YL1 / Fold change vs veh, SH3YL1 / RFU, ZEB2 / Fold change vs veh, ZEB2 / RFU, NRIP1 / Fold change vs veh, NRIP1 / RFU, PTTG1IP / Fold change vs veh, PTTG1IP / RFU, CAPN2 / Fold change vs veh, CAPN2 / RFU, MED14 / Fold change vs veh, MED14 / RFU, SNORA58 / Fold change vs veh, SNORA58 / RFU, C1orf63 / Fold change vs veh, C1orf63 / RFU, LRRFIP1 / Fold change vs veh, LRRFIP1 / RFU, NDUFAF7 / Fold change vs veh, NDUFAF7 / RFU, SLC12A2 / Fold change vs veh, SLC12A2 / RFU, IBTK / Fold change vs veh, IBTK / RFU, ESF1 / Fold change vs veh, ESF1 / Fold change vs veh, TMEM50B / RFU, TAOK1 / Fold change vs veh, TAOK1 / RFU, ACBD3 / Fold change vs veh, ACBD3 / RFU, TMA16 / Fold change vs veh, TMA16 / RFU, RWDD3 / Fold change vs veh, RWDD3 / RFU, BCAT1 / Fold change vs veh, BCAT1 / RFU, EDEM3 / Fold change vs veh, EDEM3 / RFU, TMEM33 / Fold change vs veh, TMEM33 / RFU, WDR75 / Fold change vs veh, WDR75 / RFU, AHCTF1 / Fold change vs veh, AHCTF1 / RFU, TFRC / Fold change vs veh, TFRC / RFU, ZDHHC17 / Fold change vs veh, ZDHHC17 / RFU, NOM1 / Fold change vs veh, NOM1 / RFU, ARL8B / Fold change vs veh, ARL8B / RFU, ZBTB11 / Fold change vs veh, ZBTB11 / RFU, TAMM41 / Fold change vs veh, TAMM41 / RFU, KIAA1704 /// LOC100996395 / Fold change vs veh, KIAA1704 /// LOC100996395 / RFU, ING1 / Fold change vs veh, ING1 / RFU, TRMT61B / Fold change vs veh, TRMT61B / RFU, FUBP3 / Fold change vs veh, FUBP3 / RFU, TP53 / Fold change vs veh, TP53 / RFU, TNKS2 / Fold change vs veh, TNKS2 / RFU, ZFP14 / Fold change vs veh, ZFP14 / RFU, ACTR2 / Fold change vs veh, ACTR2 / RFU, PPP3R1 / Fold change vs veh, PPP3R1 / RFU, PIK3R1 / Fold change vs veh, PIK3R1 / RFU, HNRNPA1 / Fold change vs veh, HNRNPA1 / RFU, RNF170 / Fold change vs veh, RNF170 / RFU, ZNF28 / Fold change vs veh, ZNF28 / RFU, RNGTT / Fold change vs veh, RNGTT / RFU, OGT / Fold change vs veh, OGT / RFU, BRD1 / Fold change vs veh, BRD1 / RFU, MARS / Fold change vs veh, MARS / RFU, ZNF655 / Fold change vs veh, ZNF655 / RFU, FAHD1 / Fold change vs veh, FAHD1 / RFU, BDP1 / Fold change vs veh, BDP1 / RFU, LRRCC1 / Fold change vs veh, LRRCC1 / RFU, ARID1A / Fold change vs veh, ARID1A / RFU, ZNF146 / Fold change vs veh, ZNF146 / RFU, ZNF330 / Fold change vs veh, ZNF330 / RFU, GPN3 / Fold change vs veh, GPN3 / RFU, C9orf123 / Fold change vs veh, C9orf123 / RFU, N4BP2L2 / Fold change vs veh, N4BP2L2 / RFU, ARFIP1 / Fold change vs veh, ARFIP1 / RFU, FAM179B / Fold change vs veh, FAM179B / RFU, BCL10 / Fold change vs veh, BCL10 / RFU, UHRF1BP1L / Fold change vs veh, UHRF1BP1L / RFU, BET1 / Fold change vs veh, BET1 / RFU, CNOT2 / Fold change vs veh, CNOT2 / RFU, ZNF268 / Fold change vs veh, ZNF268 / Fold change vs veh, ZNF507 / RFU, DGCR2 / Fold change vs veh, DGCR2 / RFU, WDSUB1 / Fold change vs veh, WDSUB1 / Fold change vs veh, HSP90B1 /// MIR3652 / RFU, ADSS / Fold change vs veh, ADSS / RFU, GK / Fold change vs veh, GK / RFU, ZNF148 / Fold change vs veh, ZNF148 / RFU, TAF9 / Fold change vs veh, TAF9 / RFU, SLC1A5 / Fold change vs veh, SLC1A5 / RFU, SLMO2 / Fold change vs veh, SLMO2 / RFU, ABCC4 / Fold change vs veh, ABCC4 / RFU, LOC101060439 /// RAP1B / Fold change vs veh, LOC101060439 /// RAP1B / RFU, RFX7 / Fold change vs veh, RFX7 / RFU, GTPBP10 / Fold change vs veh, GTPBP10 / RFU, CNEP1R1 / Fold change vs veh, CNEP1R1 / RFU, BIVM-ERCC5 /// ERCC5 / Fold change vs veh, BIVM-ERCC5 /// ERCC5 / RFU, ILF3 / Fold change vs veh, ILF3 / RFU 11762660_at / Fold change /veh 11762660_at / RFU VCAN (11757783_s_at) / Fold change /veh VCAN (11757783_s_at) / RFU DDX43 (11728927_at) / Fold change /veh DDX43 (11728927_at) / RFU KRT8 (11758188_x_at) / Fold change /veh KRT8 (11758188_x_at) / RFU NKD1 (11759106_at) / Fold change /veh NKD1 (11759106_at) / RFU SRD5A1 (11742802_a_at) / Fold change /veh SRD5A1 (11742802_a_at) / RFU TPSAB1 /// TPSB2 (11721975_s_at) / Fold change /veh TPSAB1 /// TPSB2 (11721975_s_at) / RFU GSTM3 (11746129_a_at) / Fold change /veh GSTM3 (11746129_a_at) / RFU IL23R (11737362_x_at) / Fold change /veh IL23R (11737362_x_at) / RFU TMEM51 (11727254_a_at) / Fold change /veh TMEM51 (11727254_a_at) / RFU PIWIL2 (11732686_x_at) / Fold change /veh PIWIL2 (11732686_x_at) / RFU ORM1 (11744905_x_at) / Fold change /veh ORM1 (11744905_x_at) / RFU CCDC152 (11743942_at) / Fold change /veh CCDC152 (11743942_at) / RFU ECM1 (11717891_a_at) / Fold change /veh ECM1 (11717891_a_at) / RFU IL23R (11748794_a_at) / Fold change /veh IL23R (11748794_a_at) / RFU TNFAIP8L3 (11732012_x_at) / Fold change /veh TNFAIP8L3 (11732012_x_at) / RFU MBOAT4 (11741988_at) / Fold change /veh MBOAT4 (11741988_at) / RFU 11764193_at / Fold change /veh 11764193_at / RFU TMEM53 (11763286_at) / Fold change /veh TMEM53 (11763286_at) / RFU MAGEB2 (11727129_at) / Fold change /veh MAGEB2 (11727129_at) / RFU TMEM200A (11744735_a_at) / Fold change /veh TMEM200A (11744735_a_at) / RFU CCDC152 (11751479_a_at) / Fold change /veh CCDC152 (11751479_a_at) / RFU FAM211A (11726209_a_at) / Fold change /veh FAM211A (11726209_a_at) / RFU RGS16 (11746705_a_at) / Fold change /veh RGS16 (11746705_a_at) / RFU VCAN (11755009_s_at) / Fold change /veh VCAN (11755009_s_at) / RFU RHOB (11743442_s_at) / Fold change /veh RHOB (11743442_s_at) / RFU RGS16 (11720943_a_at) / Fold change /veh RGS16 (11720943_a_at) / RFU RGS16 (11720944_at) / Fold change /veh RGS16 (11720944_at) / RFU, VPS4B / Fold change vs veh, VPS4B / RFU, CREB1 / Fold change vs veh, CREB1 / RFU, DNAJC13 / Fold change vs veh, DNAJC13 / RFU, GNAQ / Fold change vs veh, GNAQ / RFU, CDK5R1 / Fold change vs veh, CDK5R1 / RFU, ZRANB3 / Fold change vs veh, ZRANB3 / RFU, CUL4A / Fold change vs veh, CUL4A / RFU, CCNY / Fold change vs veh, CCNY / RFU, UFL1 / Fold change vs veh, UFL1 / RFU, COG3 / Fold change vs veh, COG3 / RFU, DIAPH2 / Fold change vs veh, DIAPH2 / RFU, SKA2 / Fold change vs veh, SKA2 / RFU, AFF3 / Fold change vs veh, AFF3 / RFU, LMF1 / Fold change vs veh, LMF1 / RFU, IPO11 / Fold change vs veh, IPO11 / RFU, DFFB / Fold change vs veh, DFFB / RFU, FOXP1 / Fold change vs veh, FOXP1 / RFU, CARD8 / Fold change vs veh, CARD8 / RFU, STRN3 / Fold change vs veh, STRN3 / RFU, ADK / Fold change vs veh, ADK / RFU, RASSF2 / Fold change vs veh, RASSF2 / RFU, WIPF1 / Fold change vs veh, WIPF1 / RFU, LARP1B / Fold change vs veh, LARP1B / RFU, RASA1 / Fold change vs veh, RASA1 / RFU, RB1 / Fold change vs veh, RB1 / RFU, PPFIA1 / Fold change vs veh, PPFIA1 / RFU, MAT2A / Fold change vs veh, MAT2A / RFU, CCT5 / Fold change vs veh, CCT5 / RFU, WDR92 / Fold change vs veh, WDR92 / RFU, CUX1 / Fold change vs veh, CUX1 / RFU, TTC7A / Fold change vs veh, TTC7A / RFU, TMEM135 / Fold change vs veh, TMEM135 / RFU, DEPTOR / Fold change vs veh, DEPTOR / RFU, CPM / Fold change vs veh, CPM / RFU, DNAJB6 / Fold change vs veh, DNAJB6 / RFU, CACNA2D3 / Fold change vs veh, CACNA2D3 / RFU, DTX4 / Fold change vs veh, DTX4 / RFU, TFCP2 / Fold change vs veh, TFCP2 / RFU, GMCL1 /// GMCL1P1 / Fold change vs veh, GMCL1 /// GMCL1P1 / RFU, AEBP2 / Fold change vs veh, AEBP2 / RFU, SNHG1 /// SNORD22 /// SNORD25 /// SNORD26 /// SNORD27 /// SNORD28 /// SNORD29 /// SNORD31 / Fold change vs veh, SNHG1 /// SNORD22 /// SNORD25 /// SNORD26 /// SNORD27 /// SNORD28 /// SNORD29 /// SNORD31 / Fold change (Aza/veh), C12orf56 (ProbeSet 11735607_a_at) / Fold change (ACY-1035/veh), C12orf56 (ProbeSet 11735607_a_at) / Fold change (Aza/veh), FGFR1OP (ProbeSet 11751329_s_at) / Fold change (ACY-1035/veh), FGFR1OP (ProbeSet 11751329_s_at) / Fold change (Aza/veh), VPS36 (ProbeSet 11739960_a_at) / Fold change (ACY-1035/veh), VPS36 (ProbeSet 11739960_a_at) / RFU SYPL1 (11715823_x_at) / Fold change /veh SYPL1 (11715823_x_at) / RFU IGFBP7 (11715501_s_at) / Fold change /veh IGFBP7 (11715501_s_at) / RFU REEP3 (11722064_at) / Fold change /veh REEP3 (11722064_at) / RFU IGLL1 (11728026_x_at) / Fold change /veh IGLL1 (11728026_x_at): dose or concentration left out as unconfirmed. The following applies: MV-4-11 cells, 48 hours.

As to `Nc1ncn([C@@H]2O[C@H](CO)[C@@H](O)[C@H]2O)c(=O)n1` [azacitidine], the “Fold change /veh MAGEB2 (11727129_at)” value is on record as 2.40.
